Data on six compounds can be found in ChEMBL document CHEMBL4422646, “Synthesis and biological evaluation of 3-amino-, 3-alkoxy- and 3-aryloxy-6-(hetero)arylpyridazines as potent antitumor agents” (Bioorg Med Chem Lett, 2019).

Structures are written as SMILES. Activity calls are given as the source filed them. The rule behind the calls is not given here. Bounds are passed on as bounds.

Data set [1] concerns the target Mitogen-activated protein kinase; ERK1/ERK2 (Homo sapiens) (UniProt P27361+P28482). Kind of data set: Inhibition of EGF-stimulated p44/42 phosphorylation in human MDA-MB-468-Luc cells at 10^-5 M pre-incubated for 1 hr before EGF stimulation for 15 mins by Western blot analysis relative to control. The class given is cell-based.
The subject of data set [2] is Caco-2. Kind of data set: Antiproliferative activity against human Caco2 cells after 48 hrs by Hoechst 33342 staining-based assay. The class given is functional, cell-based. As to conditions: Caco-2, 48 h.
In data set [3] the test system is MDA-MB-231. Description: Antiproliferative activity against human MDA-MB-231 cells at 0.1 to 25 uM after 48 hrs by Hoechst 33342 staining-based assay relative to control. The class given is functional.
Data set [4] deals with NCI-H727. Description: Antiproliferative activity against human NCI-H727 cells after 48 hrs by Hoechst 33342 staining-based assay. The class given is functional, cell-based. As to conditions: NCI-H727, 48 h.
For data set [5], the system named is MDA-MB-231. Kind of data set: Antiproliferative activity against human MDA-MB-231 cells after 48 hrs by Hoechst 33342 staining-based assay. Format: functional, cell-based. As to conditions: MDA-MB-231, 48 h.
The subject of data set [6] is HCT-116. Description: Antiproliferative activity against human HCT116 cells after 48 hrs by Hoechst 33342 staining-based assay. The class given is functional, cell-based. As to conditions: HCT-116, 48 h.
Data set [7] has as its system HaCaT. Description: Antiproliferative activity against human HaCaT cells at 0.1 to 25 uM after 48 hrs by Hoechst 33342 staining-based assay relative to control. Format: cell-based.
Data set [8] has as its system HaCaT. Description: Antiproliferative activity against human HaCaT cells after 48 hrs by Hoechst 33342 staining-based assay. The class given is cell-based.
In data set [9] the test system is Fibroblast. Kind of data set: Antiproliferative activity against human fibroblast cells after 48 hrs by Hoechst 33342 staining-based assay. The class given is cell-based.
In data set [10] the test system is PC-3. Kind of data set: Antiproliferative activity against human PC3 cells after 48 hrs by Hoechst 33342 staining-based assay. The class given is functional, cell-based. The following applies: PC-3, 48 h.
The test system of data set [11] is NCI-H727. Kind of data set: Antiproliferative activity against human NCI-H727 cells at 0.1 to 25 uM after 48 hrs by Hoechst 33342 staining-based assay relative to control. The class given is functional.
Data set [12] has as its system Huh-7. Description: Antiproliferative activity against human HuH7 cells at 0.1 to 25 uM after 48 hrs by Hoechst 33342 staining-based assay relative to control. Format: functional.
The test system of data set [13] is HCT-116. Kind of data set: Antiproliferative activity against human HCT116 cells at 0.1 to 25 uM after 48 hrs by Hoechst 33342 staining-based assay relative to control. The class given is functional.
Data set [14] concerns MDA-MB-468. Kind of data set: Anticlonogenic activity against human MDA-MB-468 cells harboring luciferase reporter gene after 2 weeks by Giemsa staining-based assay. As to conditions: MDA-MB-468, 336 h. Format: functional, cell-based.
Data set [15] has as its system Huh-7. Kind of data set: Antiproliferative activity against human HuH7 cells after 48 hrs by Hoechst 33342 staining-based assay. Format: functional, cell-based. As to conditions: Huh-7, 48 h.
Data set [16] concerns the target RAC-alpha serine/threonine-protein kinase (Homo sapiens) (UniProt P31749). Kind of data set: Inhibition of EGF-stimulated Akt phosphorylation in human MDA-MB-468-Luc cells at 10^-5 M pre-incubated for 1 hr before EGF stimulation for 15 mins by Western blot analysis relative to control. The class given is cell-based.
Data set [17] can be described thus: Toxicity in zebrafish embryos assessed as effect on embryo mobility at 0.8 uM after 72 hrs. More on the design: species or system Danio rerio. The following applies: in vivo.
For data set [18], the system named is HepaRG. Kind of data set: Hepatotoxicity in human HepaRG cells at 2.5 uM after 48 hrs. The class given is toxicity, cell-based.
The subject of data set [19] is PC-3. Description: Antiproliferative activity against human PC3 cells at 0.1 to 25 uM after 48 hrs by Hoechst 33342 staining-based assay relative to control. The class given is functional.
Data set [20] is described as follows: Toxicity in zebrafish embryos at 2.5 uM after 72 hrs. More on the design: species or system Danio rerio. The following applies: in vivo.
The nature of data set [21]: Toxicity in zebrafish embryos assessed as reduction in eye size at 2.5 uM after 72 hrs. More on the design: species or system Danio rerio. As to conditions: in vivo.
The subject of data set [22] is Fibroblast. Description: Antiproliferative activity against human fibroblast cells at 0.1 to 25 uM after 48 hrs by Hoechst 33342 staining-based assay relative to control. The class given is cell-based.
Data set [23] can be described thus: Toxicity in zebrafish embryos assessed as alive embryo at 0.8 uM after 72 hrs. More on the design: species or system Danio rerio. As to conditions: in vivo.
Data set [24] can be described thus: Toxicity in zebrafish embryos assessed as reduction in eye size at 0.8 uM after 72 hrs. Also on record: species or system Danio rerio. As to conditions: in vivo.
Data set [25] is described as follows: Toxicity in zebrafish embryos assessed as effect on embryo development at 0.8 uM after 72 hrs. More on the design: species or system Danio rerio. As to conditions: in vivo.

Sequence of Mitogen-activated protein kinase; ERK1/ERK2 (Homo sapiens) (P27361 whole entry, looked up): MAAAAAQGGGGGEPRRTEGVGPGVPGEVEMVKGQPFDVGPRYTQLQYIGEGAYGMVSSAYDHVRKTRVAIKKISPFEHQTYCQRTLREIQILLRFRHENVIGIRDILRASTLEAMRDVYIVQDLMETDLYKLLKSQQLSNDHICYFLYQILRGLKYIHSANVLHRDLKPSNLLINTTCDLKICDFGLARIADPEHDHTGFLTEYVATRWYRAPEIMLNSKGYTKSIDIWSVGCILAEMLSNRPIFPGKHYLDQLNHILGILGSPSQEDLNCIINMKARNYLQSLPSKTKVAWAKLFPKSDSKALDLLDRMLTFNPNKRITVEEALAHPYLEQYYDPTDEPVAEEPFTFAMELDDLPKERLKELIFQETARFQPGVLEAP
Sequence of Mitogen-activated protein kinase; ERK1/ERK2 (Homo sapiens) (P28482 whole entry, looked up): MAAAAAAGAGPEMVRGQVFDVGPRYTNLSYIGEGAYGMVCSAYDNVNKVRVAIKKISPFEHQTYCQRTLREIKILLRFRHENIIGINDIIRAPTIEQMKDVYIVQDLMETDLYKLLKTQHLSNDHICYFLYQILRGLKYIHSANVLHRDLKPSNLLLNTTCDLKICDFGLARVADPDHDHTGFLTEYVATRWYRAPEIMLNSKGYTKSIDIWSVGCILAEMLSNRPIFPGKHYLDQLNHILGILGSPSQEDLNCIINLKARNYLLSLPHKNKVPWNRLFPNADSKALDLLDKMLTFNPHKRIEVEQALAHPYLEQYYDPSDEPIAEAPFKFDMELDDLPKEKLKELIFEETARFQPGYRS
Sequence of RAC-alpha serine/threonine-protein kinase (Homo sapiens) (P31749 whole entry): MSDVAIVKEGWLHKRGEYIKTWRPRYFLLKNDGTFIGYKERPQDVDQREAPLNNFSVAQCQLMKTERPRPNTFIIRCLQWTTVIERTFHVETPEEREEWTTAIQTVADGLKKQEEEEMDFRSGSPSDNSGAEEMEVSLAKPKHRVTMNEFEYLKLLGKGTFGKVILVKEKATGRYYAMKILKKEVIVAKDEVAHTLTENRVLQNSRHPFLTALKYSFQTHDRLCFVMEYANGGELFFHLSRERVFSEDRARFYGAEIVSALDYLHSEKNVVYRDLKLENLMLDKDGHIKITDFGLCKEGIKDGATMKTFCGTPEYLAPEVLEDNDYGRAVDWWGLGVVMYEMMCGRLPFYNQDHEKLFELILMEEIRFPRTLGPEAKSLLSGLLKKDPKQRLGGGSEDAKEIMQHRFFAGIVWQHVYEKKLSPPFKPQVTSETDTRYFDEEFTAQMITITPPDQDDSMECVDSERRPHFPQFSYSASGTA

On to `CCN(CC)c1ccc(-c2ccc(C(C)=O)cc2)nn1`, for which the inhibition in data set [1] is less than 50%. Also, the IC50 was 15 µM in [2]; 25 µM in [4]; 5 µM in data set [5]; 6 µM in data set [6]; 20 µM in data set [8]; greater than 25 µM in [9]. For the same compound, the IC50 was greater than 25 µM in [10], 0.65 µM in data set [14] and 25 µM in [15]. Besides, the Activity in [3] is reported as 60%; in [7] it was 80%; in data set [11] it was 80%; in data set [12], 80%; in data set [13] it was 100%.

As to `CCOC(=O)c1ccc(-c2ccc(N(C)C)nn2)cc1`, the inhibition entry in data set [1] and in [16] was “inactive” throughout. Also, the IC50 in data set [2], in data set [4], in data set [5], in [6], in data set [9] and in data set [10] was greater than 25 µM each time. The IC50 in [14] is 26 µM; in data set [15] it was greater than 25 µM.

With `CCN(CC)c1ccc(-c2ccc(C(=O)OC)cc2)nn1`, the Activity result in data set [17] was “Non-Toxic”; in data set [18], “Non-Toxic”; in [3], 60%; in data set [19] it was 72%; in data set [7] it was 85%; in [20], “Toxic”. In addition, the Activity in data set [11] is on record as 60%; in [21], “Toxic”; in [12], 60%; in data set [13], 100%; in data set [22] it was 40%; in [23], “Non-Toxic”. Besides, the Activity result in data set [24] and in data set [25] was “Non-Toxic” each time. Moreover, the inhibition in data set [1] was 70%; in data set [16], greater than 70%. The IC50 in [2] was 0.25 µM; in data set [4] it was 0.09 µM; in [5] it was 0.14 µM; in data set [6], 0.06 µM; in data set [8] it was 0.08 µM; in [9] it was 0.1 µM. The IC50 in data set [10] was 0.09 µM; in data set [14], 0.015 µM; in data set [15] it was 0.09 µM.

For `COC(=O)c1ccc(-c2ccc(N(C)C)nn2)cc1`, the inhibition entry in data set [1] and in [16] was “inactive” throughout. The IC50 in data set [2], in data set [4], in data set [5], in [6], in [9] and in [10] was greater than 25 µM in each case. Further, the IC50 in [14] is 3.5 µM; in [15], greater than 25 µM.

On to `CCOC(=O)c1ccc(-c2ccc(N(CC)CC)nn2)cc1`, for which the Activity entry in data set [17] is given as “Non-Toxic”; in data set [18], “Non-Toxic”; in [3] it was 70%; in data set [19] it was 80%; in data set [7], 80%; in [20], “Toxic”. Further, the Activity in data set [11] is given as 60%; in [12], 60%; in [13], 90%; in [22], 40%; in [23], “Non-Toxic”; in data set [25], “Non-Toxic”. The compound also yielded an inhibition in data set [1] of 70%. The IC50 was 4 µM in [2]; 1.5 µM in [4]; 1.5 µM in [5]; 0.5 µM in data set [6]; 0.5 µM in data set [8]; 3 µM in [9]. In addition, the values for the concentration for half-maximal inhibition (IC50) in data set [10], in data set [14] and in data set [15] were 1 µM, 0.12 µM and 9 µM, respectively. Also, the inhibition result in data set [16] was “Active”.

Take `COc1cccc2c1C(=O)c1c(O)c3c(c(O)c1C2=O)C[C@@](O)(C(=O)CO)C[C@@H]3O[C@H]1C[C@H](N)[C@H](O)[C@H](C)O1` [DOXORUBICIN]: the IC50 was found to be 0.09 µM in data set [2]; 0.03 µM in data set [4]; 0.012 µM in data set [5]; 0.05 µM in data set [6]; 0.03 µM in [8]; 0.005 µM in [9]. The figures for the IC50 in data set [10] and in data set [15] were 0.08 µM and 0.03 µM, respectively. The Activity in data set [3] was found to be 50%; in data set [19], 80%; in [7] it was 70%; in data set [11] it was 60%; in [12] it was 40%; in data set [13] it was 80%. The compound also had an Activity in [22] of 40%.
